{"source": "patent US20090312380A1", "about": "“NOVEL COMPOSITIONS AND METHODS” (priority 2006, published 2009)", "type_in_all_cases": "physicochemical", "key": {"[1]": {"experiment": "BET nitrogen adsorption analysis, total specific surface area", "settings": "for Specific Surface Area (nitrogen): BET nitrogen adsorption model, 77.3K", "source_text": "The D values represent particle size medians from the detected particle size distribution curves. D(v, x) means that 100x % of particles are smaller than the corresponding D value, and 100-100x % of particles are larger. The samples were also subjected to the Brunauer-Emmett-Teller (BET)-nitrogen adsorption analysis to determine the total surface area of the samples as follows:\nApproximately 0.2-0.5 g of material (accurately weighed) was loaded into a surface area analyser glass tube fitted with a glass rod in order to minimise the overall free space. The sample was then outgased under vacuum at 30° C. for several hours. Upon completion of the outgas step, the sample tube was removed from the analyser and backfilled with helium to avoid refilling with air from the surrounding environment. The sample tube was reweighed in order to calculate the amount of dry sample used during the analysis step. The analyser tube was then loaded into the surface area analyser, and free space analysis was then conducted in order to account for the free volume in the tube and thus accurately measure the quantity of gas adsorbed directly on the powder surface. Nitrogen gas adsorption measurement was executed in a liquid nitrogen filled dewar at 77.3K. BET multipoint surface area determination was performed in the partial pressure range p/po=0.1-0.3 with 5 data points. Specific surface area calculation was performed by linear regression analysis of data according to the BET equation."}, "[2]": {"experiment": "Water surface area from GVS data, BET model", "settings": "for Water Surface Area (WSA): BET adsorption model, GVS adsorption runs; for surface hydrophilicity group predicted from the WSA data: WSA data of Table 6 (ESW and BET); for number of hydrophilic domains: from ESW and BET water surface areas and GVS results; for WSA compared with SSA: water surface area versus specific surface area (nitrogen); for water surface area (ranking): Table 6, compared to samples B or C", "source_text": "The multilayer sorption model according to Brunauer, Emmet and Teller Journal of the American Chemical Society, vol. 60, pp. 309, 1938) is described as follows:\nwith: n=number of moles adsorbed at p/p, (=RH/100) • nmono=apparent number of moles adsorbed in monolayer • p/ps=gas partial pressure (=RH/100 in the GVS experiments) • C=BET constant (measure for the strength of the sorption interaction)\nFrom the sorption kinetics, the equilibrium weight changes at the end of each RH stage are extracted to compile xy-data pairs (RH vs. adsorbed amount).\nFrom this, a plot of [p/ps]/[n(1−p/ps)] versus p/ps should give a linear correlation with intercept b=1/[C(nmono)] and slope m=b(C−1).\nEvaluation is done by using 5-7 data points (RH vs. adsorbed amount) in the RH range 5-30% RH, which are then used for linear regression to obtain the intercept b and slope m (as explained above). The data is considered acceptable, if the correlation coefficient (r^2) of the linear regression is >0.95, although a correlation coefficient of ≧0.99 should be obtainable for most data sets. From slope and intercept, one can calculate the BET constant C and apparent monolayer amount nmono.\n(§1) The calculated monolayer coverage nmono obtained from the application of the gas sorption models to GVS data can be re-calculated to water surface area Awater, taking into account the mean cross sectional area aH2O occupied by one water molecule upon adsorption:\n(§2) with: Awater=water surface area [m^2/g] • aH2O mean cross sectional area of one water molecule adsorbed 10^−19 m^2/molecule • nmono=apparent amount adsorbed in the monolayer [mol] • NL=Lochschmidt number=6×10^23 molecules/mol • mdry (sample)=dry mass of sample [g]\nThe determination of the BET water surface area is illustrated for sample A as follows. From the relative humidity data and the mass difference, p/ps and [p/ps]/[n(1−p/ps)] were calculated to give the values shown in Table 4.\nA plot of p/ps versus [p/ps]/[n(1−p/ps)] was then generated (see FIG. 2) allowing the slope (m=26.726) and the intercept (b=3.8219) to be calculated. Using the equations b=1/[C(nmono)] and m=b(C−1), the apparent monolayer amount, n^mono, was calculated to equate to 0.0327 mg. This in turn led to a WSA of 5.9 m^2/g, using equation (A4) above, wherein mdry=18.57 mg."}, "[3]": {"experiment": "Water surface area from GVS data, Excess Surface Work (ESW) model", "settings": "for Water Surface Area (WSA): ESW adsorption model, GVS adsorption runs", "description": "The xy-data pairs used for the sorption isotherms (mRH, RH-levels) can also be used for a different approach to describe the sorption isotherm. Here, the change in chemical potential Δμ for the sorption process at each relative humidity (and at temperature T) is calculated:\nwith: R=Universal Gas Constant • T=Temperature • p=water partial pressure at humidity RH and temperature T • ps=water vapour saturation pressure at temperature T\nBased on the change in chemical potential Δμ, an energetic term φ can be calculated for each relative humidity, termed excess surface work (ESW) according to J. Adolphs and M. J. Setzer, Journal of Colloid and Interface Science, vol. 180, pp. 70-76, 1996:\nwith: Φ=excess surface work • Δμ=change in chemical potential • nads=number of moles of water adsorbed in equilibrium at humidity RH\nA plot of Φ/RT vs. nads can then be generated, to allow the value of nads at the minimum value of Φ/RT to be deduced. This value of nads corresponds to nmono.\nas §1, §2\nLikewise, the determination of the ESW water surface area is illustrated for sample A as follows.\nA plot of Φ/RT versus the change in mass for sample A was then generated (see FIG. 3). From this, it could be deduced that the minimum value of Φ/RT corresponded to a change in mass of 0.0369 mg, the apparent monolayer amount. This is turn equated to a WSA of 6.65 m^2/g, using equation (A4) above, wherein mdry=18.57 mg."}, "[4]": {"experiment": "Powder dissolution in 0.1N HCl (37° C.)", "settings": "for dissolution characteristics: 0.1N HCl, 37° C., FIG. 4, compared with samples B and C; for dissolution kinetics: in the media, FIGS. 4 and 5", "description": "FIG. 4: Powder dissolution profiles in 0.1N HCl (37° C.) of samples of irbesartan. Dissolution experiments were executed in 0.1N HCt (37° C.) on the four micronised samples A-D of irbesartan. […] Thus with all other parameters being equal, it can be seen that the improved dissolution profile directly correlates to the increased water surface area of samples A and D."}}}
{"smiles": "CCCCC1=NC2(CCCC2)C(=O)N1Cc1ccc(-c2ccccc2-c2nnn[nH]2)cc1", "note": "[Sample C, irbesartan]", "values": [{"measurement": "Specific Surface Area (nitrogen)", "setting": "[1]", "value": 3.16, "unit": "m^2/g"}, {"measurement": "Water Surface Area (WSA)", "setting": "[2]", "value": 3.6, "unit": "m^2/g"}, {"measurement": "surface hydrophilicity group predicted from the WSA data", "setting": "[2]", "value": "relatively hydrophobic"}, {"measurement": "number of hydrophilic domains", "setting": "[2]", "value": "approximately a similar number of hydrophilic domains as each other"}, {"measurement": "WSA compared with SSA", "setting": "[2]", "value": "greater than the SSA"}, {"measurement": "Water Surface Area (WSA)", "setting": "[3]", "value": 4.3, "unit": "m^2/g"}]}
{"smiles": "CCCCC1=NC2(CCCC2)C(=O)N1Cc1ccc(-c2ccccc2-c2nnn[nH]2)cc1", "note": "[Sample B, irbesartan]", "values": [{"measurement": "specific surface area (ranking among samples A-D)", "setting": "[1]; BET nitrogen adsorption", "value": "greatest specific surface area"}, {"measurement": "Specific Surface Area (nitrogen)", "setting": "[1]", "value": 6.16, "unit": "m^2/g"}, {"measurement": "Water Surface Area (WSA)", "setting": "[2]", "value": 3.2, "unit": "m^2/g"}, {"measurement": "surface hydrophilicity group predicted from the WSA data", "setting": "[2]", "value": "relatively hydrophobic"}, {"measurement": "number of hydrophilic domains", "setting": "[2]", "value": "approximately a similar number of hydrophilic domains as each other"}, {"measurement": "Water Surface Area (WSA)", "setting": "[3]", "value": 3.0, "unit": "m^2/g"}, {"measurement": "dissolution profile", "setting": "[4]; compared with samples A and D", "value": "significantly poorer dissolution profile"}]}
{"smiles": "CCCCC1=NC2(CCCC2)C(=O)N1Cc1ccc(-c2ccccc2-c2nnn[nH]2)cc1", "note": "[Sample D, irbesartan]", "values": [{"measurement": "Specific Surface Area (nitrogen)", "setting": "[1]", "value": 4.29, "unit": "m^2/g"}, {"measurement": "Water Surface Area (WSA)", "setting": "[2]", "value": 6.5, "unit": "m^2/g"}, {"measurement": "water surface area (ranking)", "setting": "[2]", "value": "largest water surface areas"}, {"measurement": "surface hydrophilicity group predicted from the WSA data", "setting": "[2]", "value": "relatively hydrophilic"}, {"measurement": "number of hydrophilic domains", "setting": "[2]", "value": "approximately twice the number of hydrophilic domains"}, {"measurement": "WSA compared with SSA", "setting": "[2]", "value": "greater than the SSA"}, {"measurement": "Water Surface Area (WSA)", "setting": "[3]", "value": 6.5, "unit": "m^2/g"}, {"measurement": "dissolution characteristics", "setting": "[4]", "value": "enhanced dissolution characteristics"}, {"measurement": "dissolution kinetics", "setting": "[4]", "value": "significantly faster dissolution kinetics"}]}
{"smiles": "CCCCC1=NC2(CCCC2)C(=O)N1Cc1ccc(-c2ccccc2-c2nnn[nH]2)cc1", "note": "[Sample A, irbesartan]", "values": [{"measurement": "Specific Surface Area (nitrogen)", "setting": "[1]", "value": 5.17, "unit": "m^2/g"}, {"measurement": "Water Surface Area (WSA)", "setting": "[2]", "value": 5.9, "unit": "m^2/g"}, {"measurement": "Water Surface Area (WSA)", "setting": "[2]; listed as sample A", "value": 5.9, "unit": "m^2/g"}, {"measurement": "apparent monolayer amount nmono", "setting": "[2]; BET model, mdry=18.57 mg", "value": 0.0327, "unit": "mg"}, {"measurement": "water surface area (ranking)", "setting": "[2]", "value": "largest water surface areas"}, {"measurement": "surface hydrophilicity group predicted from the WSA data", "setting": "[2]", "value": "relatively hydrophilic"}, {"measurement": "number of hydrophilic domains", "setting": "[2]", "value": "approximately twice the number of hydrophilic domains"}, {"measurement": "WSA compared with SSA", "setting": "[2]", "value": "greater than the SSA"}, {"measurement": "Water Surface Area (WSA)", "setting": "[3]", "value": 6.7, "unit": "m^2/g"}, {"measurement": "Water Surface Area (WSA)", "setting": "[3]; listed as sample A", "value": 6.65, "unit": "m^2/g"}, {"measurement": "apparent monolayer amount (change in mass at minimum of Φ/RT)", "setting": "[3]; ESW model, mdry=18.57 mg", "value": 0.0369, "unit": "mg"}, {"measurement": "dissolution characteristics", "setting": "[4]", "value": "enhanced dissolution characteristics"}, {"measurement": "dissolution kinetics", "setting": "[4]", "value": "significantly faster dissolution kinetics"}]}
